Laboratory results reported in ChEMBL document CHEMBL4373743, “Selective apoptosis-inducing activity of synthetic hydrocarbon-stapled SOS1 helix with d-amino acids in H358 cancer cells expressing KRASG12C” (Eur J Med Chem, 2020).
The source made the active and inactive calls. The rule behind the calls is not given here. Bridge positions count the residues as written; N and C are the ends. Square brackets hold non-standard residues; d marks the D form. Peptide text beside a SMILES is read from it. S5 = C=CCCC[C@](C)(N)C(=O)O

Legend:
[1] = test system: GTPase KRas (Homo sapiens), P01116 [G12C]; assay: Inhibition of mant-GDP bound N-terminal His6-tagged recombinant KRAS G12C mutant (unknown origin) by fluorescence based assay
[2] = target: GTPase KRas (Homo sapiens, UniProt P01116, G12C); assay: Binding affinity to biotinylated N-terminal His6-tagged recombinant KRAS G12C mutant (unknown origin) by BLI method
[3] = test system: NCI-H358; assay: Antiproliferative activity against human NCI-H358 cells harboring KRAS G12C mutant incubated for 24 hrs by MTT assay; format: functional, cell-based
[4] = test system: GTPase KRas (Homo sapiens), P01116 [G12C]; assay: Binding affinity to biotinylated N-terminal His6-tagged recombinant KRAS G12C mutant (unknown origin) assessed as dissociation constant by BLI method
[5] = test system: A549; assay: Antiproliferative activity against human A549 cells harboring KRAS G12S mutant at 0.37 to 10 uM incubated for 24 hrs by MTT assay; format: functional, cell-based
[6] = test system: GTPase KRas (Homo sapiens), P01116 [G12C]; assay: Binding affinity to biotinylated N-terminal His6-tagged recombinant KRAS G12C mutant (unknown origin) assessed as association constant by BLI method

GTPase KRas, sequence (P01116 whole entry G12C): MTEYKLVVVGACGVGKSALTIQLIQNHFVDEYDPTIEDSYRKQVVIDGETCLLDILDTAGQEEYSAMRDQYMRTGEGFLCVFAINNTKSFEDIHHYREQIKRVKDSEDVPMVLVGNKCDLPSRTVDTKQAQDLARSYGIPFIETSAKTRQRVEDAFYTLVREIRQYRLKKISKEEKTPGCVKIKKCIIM
GTPase KRas (Homo sapiens), P01116 [G12C], sequence (P01116 whole entry G12C): as above

For `CC[C@H](C)[C@H](NC(=O)CNC(=O)[C@H](Cc1ccccc1)NC(=O)[C@H](Cc1ccccc1)NC(=O)[C@H](CCCNC(=N)N)NC(=O)[C@H](CCCNC(=N)N)NC(C)=O)C(=O)N[C@@]1(C)CCC/C=C\CCC[C@@](C)(C(=O)N[C@@H](CC(C)C)C(=O)N[C@@H](CCCCN)C(=O)N[C@H](C(=O)N[C@@H](CCC(=O)O)C(=O)N[C@@H](CCC(=O)O)C(=O)NCC(=O)N[C@@H](CC(N)=O)C(=O)O)[C@@H](C)O)NC(=O)[C@H](CC(N)=O)NC(=O)[C@H]([C@@H](C)O)NC(=O)[C@H](CC(C)C)NC1=O`, the inhibition [1] was “Dose-dependent effect”, the Kd [2] was 47.8 µM and the Activity [3] was “Dose-dependent effect”. For the same compound, the Kdiss [4] was 1.17 ×10⁻¹ /s, the Activity [5] was “inactive” and the Ka [6] was 2.44 ×10³ /M.s.
In the case of `CC[C@H](C)[C@H](NC(=O)CNC(=O)[C@H](Cc1ccccc1)NC(=O)[C@H](Cc1ccccc1)NC(=O)[C@H](CCCNC(=N)N)NC(=O)[C@H](CCCNC(=N)N)NC(C)=O)C(=O)N[C@@]1(C)CCC/C=C\CCC[C@@](C)(C(=O)N[C@@H](CC(C)C)C(=O)N[C@@H](CCCCN)C(=O)N[C@H](C(=O)N[C@@H](CCC(=O)O)C(=O)N[C@@H](CCC(=O)O)C(=O)NCC(=O)N[C@@H](CC(N)=O)C(=O)O)[C@@H](C)O)NC(=O)[C@H](CC(N)=O)NC(=O)[C@H]([C@@H](C)O)NC(=O)[C@H](CC(C)C)NC(=O)[C@H](CC(=O)O)NC1=O` (Ac-RRFFGI[S5]DLTN[S5]LKTEEGN-OH; staple (Z) 7-12), the Kd [2] is reported as 26.1 µM, the Kdiss [4] is reported as 1.73 ×10⁻¹ /s and the Ka [6] is reported as 6.65 ×10³ /M.s.
`CC[C@H](C)[C@H](NC(=O)CNC(=O)[C@H](Cc1ccccc1)NC(=O)[C@H](Cc1ccccc1)NC(=O)[C@H](CCCNC(=N)N)NC(=O)[C@H](CCCNC(=N)N)NC(C)=O)C(=O)N[C@@]1(C)CCC/C=C\CCC[C@@](C)(C(=O)N[C@@H](CC(C)C)C(=O)N[C@@H](CCCCN)C(=O)N[C@H](C(=O)N[C@@H](CCC(=O)O)C(=O)N[C@@H](CCC(=O)O)C(=O)NCC(=O)N[C@@H](CC(N)=O)C(=O)O)[C@@H](C)O)NC(=O)[C@H](CC(N)=O)NC(=O)[C@H]([C@@H](C)O)NC(=O)[C@H](CC(=O)O)NC(=O)[C@H](CC(C)C)NC1=O` (Ac-RRFFGI[S5]LDTN[S5]LKTEEGN-OH; staple (Z) 7-12) showed a Kd [2] of 3.2 µM, a Kdiss [4] of 1.19 ×10⁻² /s and a Ka [6] of 3.73 ×10³ /M.s.
`CC[C@H](C)[C@H](NC(=O)CNC(=O)[C@H](Cc1ccccc1)NC(=O)[C@H](Cc1ccccc1)NC(=O)[C@H](CCCNC(=N)N)NC(=O)[C@H](CCCNC(=N)N)NC(C)=O)C(=O)N[C@@]1(C)CCC/C=C\CCC[C@@](C)(C(=O)N[C@@H](CC(C)C)C(=O)N[C@@H](CCCCN)C(=O)N[C@H](C(=O)N[C@@H](CCC(=O)O)C(=O)N[C@@H](CCC(=O)O)C(=O)NCC(=O)N[C@@H](CC(N)=O)C(=O)O)[C@@H](C)O)NC(=O)[C@H](CC(N)=O)NC(=O)[C@H](CC(=O)O)NC(=O)[C@H]([C@@H](C)O)NC(=O)[C@H](CC(C)C)NC1=O` (Ac-RRFFGI[S5]LTDN[S5]LKTEEGN-OH; staple (Z) 7-12) showed a Kd [2] of 8.81 µM, a Kdiss [4] of 4.07 ×10⁻² /s and a Ka [6] of 4.62 ×10³ /M.s.
